For data set [1], the system named is tremor induced by tremorine. Put plainly: Inhibition of tremor induced by tremorine on mice. Type of data set: in vivo. The note with it: for ED50: Mus musculus, po, 1 h before tremorine 20 mg/kg i.p., evaluated 45 minutes after tremorine; for Therapeutical index LD50/ED50: tremorine tremor, p.o. The method, then:
The tests were carried out according to Everett [Science, 124, 79 (1956)]. Tremor was induced by tremorine [1,1'-(2-butynylene)-dipyrrolidine] administered intraperitoneally at a dosage of 20 mg/kg. The compounds to be examined were given perorally to the animals one hour prior to the administration of tremorine, and the tremor developed was evaluated 45 minutes after the administration of tremorine.

Data set [2] can be described thus: Acute toxicity on white mice (LD50 p.o.). Details: species or system strain CFLP, both sexes. Particulars: mouse, in vivo, po. The method, then:
Acute toxicity of the compounds was tested on white mice of both sexes from the strain CFLP in groups consisting of 10 animals weighing 18 to 22 g. The compounds to be tested were administered perorally in a volume of 20 ml/kg. […] The animals could consume tap water and standard mouse feed ad libitum. The LD50 -values were determined according to Litchfield and Wilcoxon [J. Pharmacol. Exp. Ther., 96, 99 (1949)].

A further data set deals with mice. In words: Motility inhibiting activity (Dews equipment). Type of data set: in vivo. Particulars: for ED50: Mus musculus, po, 0.5 h, interruptions of infrared beam within 30 minutes; for Therapeutical index LD50/ED50: motility inhibition, p.o. The method, then:
The tests were performed according to the method of Borsy et al. [Arch. Int. Pharmacolyn., 124, 1-2 (1960)]. […] Then the test animals were placed in a Dews equipment. In this equipment the number of interruptions of infrared beam within 30 minutes was counted. The percentual deviation from the number of interruptions in the case of the control group was determined in each group, then the ED50 -values and therapeutical indexes were calculated.

Data set [3] deals with tonic-extensoric spasms on the hind limbs (pentetrazole). Put plainly: Spasmolytic action on mice (pentetrazole-induced tonic-extensoric spasms). The note with it: for ED50: Mus musculus, po; for Therapeutical index LD50/ED50: pentetrazole spasm. Format: in vivo, white mice. The method, then: The tests were carried out according to the method of Banzinger and Hane which was adapted to white mice [Arch. Int. Pharmacolyn., 167, 245-249 (1959)]. The test animals were treated perorally with the compounds to be tested. One hour after the administration pentetrazole (6,7,8,9,-tetrahydro-5H-tetrazolozepine) was given intraperitoneally in a dosis of 125 mg/kg. The tonic-extensoric spasms on the hind limbs were registered.

The subject of data set [4] is sleep induced with hexobarbital. In words: Narcosis potentiating activity (sleep induced with hexobarbital on mice). Format: in vivo. The note with it: for ED50: Mus musculus, po, 1 h before hexobarbital 40 mg/kg i.v., positive = sleep exceeding control mean by factor 2,5; for Therapeutical index LD50/ED50: p.o. The method, then: Groups consisting of 6 mice each were treated with the compound to be examined, perorally. After one hour, hexobarbital [5-(1-cyclohexenyl)-1,5-dimethylbarbituric acid] was injected, intravenously, at a dosage of 40 mg/kg. The control group was treated only with hexobarbital to provoke sleep. The duration of sleep was recorded. If the duration of sleep of an animal exceeded that of the mean value of the control group by a factor of 2,5, it was considered as a positive reaction. From the data referring to the animals indicating a positive reaction, the ED50 -value was calculated. From the values of LD50 and ED50, the therapeutical index was determined for each compound tested.

In a further data set the test system is tetrabenazine ptosis. In words: Antagonism of tetrabenazine ptosis on mice. The note with it: for ED50: Mus musculus, po; for Therapeutical index LD50/ED50: tetrabenazine ptosis, mice, p.o.
Data set [5] relates to electroshock provoked by electric current. Put plainly: Anticonvulsive activity on mice (inhibition of electroshock). The note with it: for ED50: Mus musculus, po. Type of data set: in vivo. The method, then:
The tests were carried out according to the method of Swinyard et al. [I. Pharmacol. Exp. Ther., 106, 319-330 (1952)] which method is based on the inhibition of electroshock provoked by electric current on mice. The compounds to be tested were administered perorally. One hour later electroshocks were given by using corneal electrodes. The frequency of the electroshocks was 50 Hz, the current intensity 45 mA and the duration 0.4 sec. The full inhibition of the tonic-extensoric spasm on the hind limbs was considered as the criterium of the anticonvulsive activity. As reference compound phenobarbital, trimetadone and traboxopin were used.

Data set [6] relates to arrhythmia provoked by aconitine. In words: Antiarrhythmic activity on rats (arrhythmia provoked by aconitine). Particulars: p.o., 4 mg/kg, 30 minutes prior to aconitine 75 μg/kg i.v. Format: in vivo. As for the experimental part:
The antiarrhythmic activity of the novel compounds was examined by influencing the arrhythmia provoked by aconitine on rats weighing 160 to 200 g according to a modified method of Marmo et al. [Arzneim.-Forsch., 20, 12 (1970)]. The animals were anaesthetized by the administration of 1.2 g/kg of ethyl urethane, intraperitoneally. Aconitine was given at a dosage of 75 μg/kg, intravenously. The compounds to be tested were administered perorally 30 minutes prior to the treatment with aconitine. In the test, lidocaine and quinidine was employed for comparison.

[7] abbreviates: white mice, p.o., 7 days observation, Litchfield and Wilcoxon, read-out: LD50 p.o.
Setting [8] is: mice, p.o., 1 h before pentetrazole 125 mg/kg i.p., read-out: ED50.
[9] abbreviates: mice, p.o., 1 h before electroshock (50 Hz, 45 mA, 0.4 sec), full inhibition of tonic-extensoric spasm, read-out: ED50.

Where “and” joins values, the source holds several entries; their conditions need not be identical. Equal entries are not always repeated. Structures can show the parent of a compound that is named as a salt. Where two headings read alike, the source gives them in different places.

Procedure for tetrabenazine ptosis: Groups consisting of 10 mice each were treated, perorally, with different doses of the compounds to be tested. The control group was treated only with the corresponding carrier. After 30 minutes, tetrabenazine [3-isobutyl-9,10-dimethoxy-1,2,3,4,6,7-hexahydrobenzo[a]quinolizine-2-one]was administered intraperitoneally at a dosage of 50 mg/kg. The number of animals having closed palpebral fissure was determined in each group after 30, 60, 90 and 120 minutes. Then, the mean value of ptosis was calculated in each group, and the deviation from that of the control group (i.e. the inhibition) was expressed in percentage. From the data obtained, the ED50 -value and the therapeutical index were determined for each novel compound tested as well as for amitryptiline [5-(3-dimethylaminopropylidine)-10,11-dihydro-5H-dibenzo[a,d]cycloheptene hydrochloride] and traboxopin [2-chloro-12(3-dimethylamino-2-methylpropyl)-12H-dibenzo[d,g][1,3,6]dioxazocine] employed for comparison.

As a reminder, the ED50 is the dose at which the effect has come halfway, by size or by number of responders. The LD50 is the dose at which mortality reaches 50%. As to `CC(C)NCCCN1c2ccccc2OCOc2ccc(Cl)cc21` [Example 2, 2-Chloro-12-(3-isopropylaminopropyl)-12H-dibenzo[d,g][1,3,6]dioxazocine maleate], in data set [1], the ED50 worked out at 5.2 mg/kg and the “Therapeutical index LD50/ED50” value turned out to be 134.6. Also, the LD50 at 168 h in data set [2] (setting [7]) was 700 mg/kg.

Consider `CNCC(C)CN1c2ccccc2OCOc2ccc(Cl)cc21` (centres unmarked) [Example 3, 2-Chloro-12-(3-methylamino-2-methylpropyl)-12H-dibenzo[d,g][1,3,6]dioxazocine hydrochloride], for which the ED50 came out at 27 mg/kg in the data set with mice, 6.4 mg/kg in data set [1], 19 mg/kg in data set [3] (setting [8]) and 2.4 mg/kg in data set [4]. The “Therapeutical index LD50/ED50” value in the data set with mice is given as 18.50; in data set [1], 78.1; in data set [3] (mice, p.o.), 26.3; in data set [4] (narcosis potentiation) it was 208. Moreover, in data set [2] (setting [7]), the LD50 at 168 h was determined as 500 mg/kg. Moreover, the “Therapeutical index compared with the known reference compounds” value in data set [4] (narcosis potentiation, statement on Table II) is “several times higher than that of the known reference compounds”.

Take `CNCCCN1c2ccccc2OCOc2ccc(Cl)cc21` [Example 4, 2-Chloro-12-(3-methylaminopropyl)-12H-dibenzo[d,g][1,3,6]dioxazocine maleate]: the figures for the ED50 (with tetrabenazine ptosis; in data set [5]; in data set [3] (setting [8])) were 7.3 mg/kg, 40 mg/kg and 25 mg/kg, respectively. Also, the “Therapeutical index LD50/ED50” value was 98.6 with tetrabenazine ptosis; 19 in data set [5] (electroshock, mice, p.o.); 28.8 in data set [3] (mice, p.o.). In addition, the “Therapeutic index compared with that of the reference compounds” value in data set [5] (electroshock, mice, statement on Table VII) is reported as 3-5 fold. Besides, the Inhibition in percentage in data set [6] (maleate) is 90.9% and 90%. Besides, in data set [2] (setting [7]), the LD50 at 168 h turned out to be 720 mg/kg.

As to `CN(C)CCC=C1c2ccccc2CCc2ccccc21` [amitryptiline, 5-(3-dimethylaminopropylidine)-10,11-dihydro-5H-dibenzo[a,d]cycloheptene hydrochloride], in the data set with tetrabenazine ptosis, the ED50 was determined as 12 mg/kg and the “Therapeutical index LD50/ED50” value is reported as 18.7.

On to `CNC1=Nc2ccc(Cl)cc2C(c2ccccc2)=[N+]([O-])C1` [chlordiazepoxide, 7-chloro-2-methylamino-5-phenyl-3H-1,4-benzodiazepine-4-oxide], for which the figures for the ED50 (in the data set on mice; in data set [4]) were 60 mg/kg and 10 mg/kg, respectively. The “Therapeutical index LD50/ED50” value amounted to 10.3 with mice and 62.0 in data set [4] (narcosis potentiation).

On to `CCN(CC)CC(=O)Nc1c(C)cccc1C` [lidocaine], for which the Inhibition in percentage in data set [6] is recorded as 23.4%.

For the molecule `CCCC(C)(COC(N)=O)COC(N)=O` [meprobamate, 2-methyl-2-propylpropandiol-1,3-dicarbamate], the ED50 was 270 mg/kg with mice and 260 mg/kg in data set [4]. Also, the “Therapeutical index LD50/ED50” value with mice is on record as 4.1; in data set [4] (narcosis potentiation), 4.2.

For the molecule `CCC1(c2ccccc2)C(=O)NC(=O)NC1=O` [phenobarbital, 5-ethyl-5-phenylbarbituric acid], the median effective dose (ED50) in data set [5] was 24.5 mg/kg; in data set [3], 19 mg/kg. Further, the “Therapeutical index LD50/ED50” value in data set [5] (electroshock, mice, p.o.) is recorded as 6.8; in data set [3] (mice, p.o.) it was 8.8.

`C=C[C@H]1C[N@@]2CC[C@H]1C[C@@H]2[C@@H](O)c1ccnc2ccc(OC)cc12` [quinidine] gave an Inhibition in percentage in data set [6] of 27.3%.

Take `CC(CN(C)C)CN1c2ccccc2OCOc2ccc(Cl)cc21` (centres unmarked) [traboxopin, 2-chloro-12-(3-dimethylamino-2-methylpropyl)-12H-dibenzo[d,g][1,3,6]dioxazocine]: the ED50 in the data set on mice stood at 25 mg/kg; in data set [1] it was 25 mg/kg; in data set [5] (setting [9]), 54 mg/kg; in data set [3] (setting [8]) it was 32 mg/kg. The “Therapeutical index LD50/ED50” value in the data set on mice was 10.8; in data set [1], 10.8; in data set [5] (electroshock, mice, p.o.), 5.0; in data set [3] (mice, p.o.), 8.4; in data set [4] (narcosis potentiation), 10.8. Moreover, the LD50 at 168 h in data set [2] (reference compounds, printed in Table II, read-out: LD50) came to 270 mg/kg.

Take `OC(CCN1CCCCC1)(c1ccccc1)C1CCCCC1` (centres unmarked) [trihexyphenidyl]: in data set [1], it took a dose of 15 mg/kg to reach the 50% effect level (ED50) and the “Therapeutical index LD50/ED50” value was 24.3.

Regarding `CN1C(=O)OC(C)(C)C1=O` [trimetadione, 3,5,5-trimethyl-oxazolidine-2,4-dione], the ED50 in data set [5] (setting [9]) stood at 490 mg/kg; in data set [3] (setting [8]), 400 mg/kg. In addition, the “Therapeutical index LD50/ED50” value in data set [3] (mice, p.o.) came to 5.5.

The values are drawn from patent US4965259A, “Dioxazocine derivatives compositions and methods containing them having antidepressive, spasmolytic, anticonvulsive, and antiarrhythmic properties” (EGIS Gyogyszergyar, priority 1987, dated 1990).
